This assay deals with Lactoperoxidase (Homo sapiens, UniProt P22079). Put plainly: Inhibition of lactoperoxidase-catalyzed iodination of L-tyrosine assessed as 3,5-diiodo-L-tyrosine formation by HPLC.

Structures are written as SMILES.

Lactoperoxidase, sequence (P22079 whole entry): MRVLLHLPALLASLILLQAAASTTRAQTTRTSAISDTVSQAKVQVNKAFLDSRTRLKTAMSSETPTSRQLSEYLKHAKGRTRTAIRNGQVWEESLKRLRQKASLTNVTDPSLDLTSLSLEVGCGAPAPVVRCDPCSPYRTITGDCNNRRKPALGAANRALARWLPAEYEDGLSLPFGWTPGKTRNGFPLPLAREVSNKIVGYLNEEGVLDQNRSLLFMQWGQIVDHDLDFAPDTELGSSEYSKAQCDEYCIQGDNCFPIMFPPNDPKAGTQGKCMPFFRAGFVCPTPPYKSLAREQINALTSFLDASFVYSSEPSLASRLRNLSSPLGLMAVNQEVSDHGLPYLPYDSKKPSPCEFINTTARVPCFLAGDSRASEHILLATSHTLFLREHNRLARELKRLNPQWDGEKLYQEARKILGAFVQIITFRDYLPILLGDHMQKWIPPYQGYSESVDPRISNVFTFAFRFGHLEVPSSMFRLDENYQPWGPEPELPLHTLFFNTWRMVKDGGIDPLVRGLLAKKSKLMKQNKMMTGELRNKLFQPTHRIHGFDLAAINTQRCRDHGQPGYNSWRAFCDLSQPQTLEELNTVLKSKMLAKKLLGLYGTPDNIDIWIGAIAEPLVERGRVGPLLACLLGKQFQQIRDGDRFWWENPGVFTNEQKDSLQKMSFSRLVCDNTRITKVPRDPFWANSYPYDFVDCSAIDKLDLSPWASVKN

One may read the IC50 as the concentration that gives 50% inhibition. Take `COC(=O)n1ccn(C)c1=S`: the half-inhibitory concentration (IC50) was determined as 10.7 µM.
As for `CCOC(=O)n1ccn(CC)c1=[Se]`, the IC50 is 21.3 µM.
For `CCOC(=O)n1ccn(C)c1=[Se]`, the IC50 came to 10.1 µM.
With `CCn1ccn(C(=O)OC)c1=[Se]` the figure was 25.3 µM; with `CCOC(=O)n1ccn(CC)c1=S`, 20.5 µM.
With `CCn1ccn(C(=O)OC)c1=S` the figure was 19.6 µM.
For `COC(=O)n1ccn(C)c1=[Se]`, the IC50 was 19.7 µM.
Regarding `CCOC(=O)n1ccn(C)c1=S` [CARBIMAZOLE], the IC50 is 10.4 µM.
With `Cn1cc[nH]c1=S` [METHIMAZOLE] the figure was 11.8 µM.

(Values after ChEMBL document CHEMBL1152289, “Antithyroid drug carbimazole and its analogues: synthesis and inhibition of peroxidase-catalyzed iodination of L-tyrosine” (J Med Chem, 2008).)
